From patent US20150051210A1, “Tyrosine Kinase Inhibitor Combinations and their Use” (Novartis AG, priority 2012, published 2015)

Key:
Type in all cases: cell-based
[1] = system: MKN-45 cells; assay: MKN-45 Dual Inhibition: reversal of rescue with selective inhibitors, CellTiter-Glo cell viability; settings: for activity on cell viability (reversal of rescue): MET-dependent MKN-45, rhFGF7 or rhNRG-1 250 ng/ml, 96 h, Cpd. A/Cpd. B 100 nM, BGJ398 500 nM, Lapatinib 1.5 μM, FIG. 3, FIG. 4
Procedure: MKN-45 Secretome screen: MKN-45 cells were plated in white, tissue-culture treated 384-well plates (Greiner) at 3000 cells/20 μl DMEM +10% FBS/well and allowed to attach overnight. Supernatant from library-transfected HEK293T/17 cells was then transferred to the MKN-45 cells at 30 μl/well using a Biomek FX liquid handler (Beckman Coulter) with pipetting speeds reduced to minimize disturbance of the HEK293T/17 monolayer. As positive controls, the purified proteins rhEGF and rhNRG1-31 (R&D Systems) were added to isolated wells on each plate for a final concentration of 150 ng/ml; supernatant from mock-transfected HEK293T/17 wells were transferred as neutral controls. Following addition of supernatants and purified protein controls, Cpd. A diluted in DMEM was added at 10 μl/well for a final assay concentration of 100 nM. After 96 hours incubation, growth was measured using the CellTiter-Glo luminescent cell viability assay system (Promega). In brief, 30 μl CellTiter-Glo reagent was added to all wells, then incubated for 15 minutes at room temperature before reading luminescence on a Viewlux plate reader (Perkin Elmer). (FIG. 1)
MKN-45 Dual Inhibition: MKN-45 cells were seeded at 3000 cells/20 μl/well in 384-well plates and incubated overnight. Solutions of rhFGF7 and rhNRG-1 were prepared in DMEM+10%FBS, then added at 30 μl/well to achieve a final concentration of 250 ng/ml (one purified protein per treatment). The following single and dual inhibition treatments were prepared in DMEM and added at […]: Cpd. A, Cpd. B, BGJ398, Lapatinib, Cpd. A and BGJ398, Cpd. B and BGJ398, Cpd. A and Lapatinib, Cpd. B and Lapatinib. Final concentrations for each compound, whether single or combined, were as follows: 100 nM for Cpd. A and Cpd. B, 500 nM for BGJ398 and 1.5 μM for Lapatinib. After 96 hours cell viability was measured by CellTiter-Glo as previously described. (FIG. 3, FIG. 4)

[2] = system: RT-112 cells; assay: RT-112 Dual Inhibition: reversal of rescue with selective inhibitors, CellTiter-Glo cell viability; settings: for activity on cell viability (reversal of rescue): RT-112, rhHGF or rhNRG-1 250 ng/ml, 96 h, BGJ398 100 nM, Cpd. A/Cpd. B 500 nM, Lapatinib 1.5 μM, FIG. 5, FIG. 6
Procedure: RT-112 Secretome screen: The basic format was identical to the MKN-45 secretome screen with slight modifications. RT-112 cells were plated in EMEM+10% in white, tissue-culture treated 384-well plates at 1000 cells/20 μl/well and allowed to attach overnight. Supernatant from library-transfected HEK293T/17 cells was transferred as described above for the MKN-45 secretome screen. Purified proteins rhNRG1-31 and rhTGFα were added as positive controls, at a final concentration of 150 ng/ml. Following addition of supernatants and purified protein controls, BGJ398 diluted in DMEM was added at 10 μl/well for a final assay concentration of 100 nM. Cell viability was measured after 72 hours using CellTiter-Glo as described above. (FIG. 2)
RT-112 Dual Inhibition: The format for the RT-112 dual inhibition experiment was similar to that described for MKN-45 with the following modifications. RT-112 cells were plated at 1000 cells/20 μl/well. Solutions of rhHGF and rhNRG-1 were added to achieve a final concentration of 250 ng/ml. Single and dual inhibition conditions were prepared as follows: BGJ398, Cpd. A, Cpd. B, Lapatinib, BGJ398 and Cpd. A, BGJ398 and Cpd. B, BGJ398 and Lapatinib. Final concentrations for each compound, whether single or combined, were as follows: 100nM for BGJ398, 500 nM for Cpd. A and Cpd. B, and 1.5 μM for Lapatinib. After 96 hours cell viability was measured by CellTiter-Glo as previously described. (FIG. 5, FIG. 6).

[3] = system: phosphorylation of MET, ERK1/2, AKT, FRS2 in MKN-45; assay: Western blots of protein phosphorylation in MKN-45 cells
Procedure: (§1) Western Blots (Figures not Shown) MKN-45 and RT-112 cells were treated in 6-well plates for 2 hours and 18 hours in the presence or absence of purified protein (rhFGF7, rhNRG1-31, or rhHGF), and/or inhibitor (Cpd. B, Cpd. A, BGJ398). Following wash with ice-cold PBS, cells were lysed with RIPA buffer (Thermo) containing phosphatase (Thermo) and proteinase (Roche) inhibitor cocktails. Total protein was quantified by bicinchoninic protein assay (Pierce). Aliquots of 20 μg were resolved by electrophoresis on NuPAGE SDS-PAGE 4-12% BIS-Tris gels before transfer to nitrocellulose membranes. Membranes were blocked for one hour at room temperature before overnight incubation at 4° C. with the following primary antibodies (source rabbit, 1:1000 final dilution): anti-phospho-Akt (Ser473), anti-phospho-MET (Tyr1234/1235), anti-phospho-MAPK/ERK(1/2) (Thr202/Tyr204), anti-AKT, anti-MAPK/Erk(1/2), and anti-α/β-Tubulin . Anti-MET was probed at 1:800 final dilution An internal antibody was used for phospho-FRS2(Y346) (1:1500 dilution). Membranes were then washed 3 times in PBS+0.1% Tween before addition of secondary antibody, IRDye 680LT goat anti-rabbit IgG , dilution 1:15000. After one hour at room temperature, membranes were washed and bands were visualized using an Odyssey Infrared Imager.

[4] = system: phosphorylation of MET, FRS2, ERK, AKT in RT-112; assay: Western blots of protein phosphorylation in RT-112 cells
Procedure: as §1

C/C(=N\NC(N)=O)c1ccc2ncc(Cc3cc4cccnc4cc3F)n2n1 [Cpd. A, (E)-2-(1-(3-((7-fluoroquinolin-6-yl)methyl)imidazo[1,2-b]pyridazin-6-yl)ethylidene)hydrazinecarboxamide]
activity on cell viability (reversal of rescue) [1]: active | activity on cell viability (reversal of rescue) [2]: not sufficient | effect on phosphorylation of several proteins (MET, ERK1/2, AKT, FRS2) ([3]; MKN-45, absence of added ligands): profound effect | prevention of HGF rescue of ERK phosphorylation ([4]; RT-112, BGJ398 plus HGF, simultaneous addition): prevented this rescue effect | MET phosphorylation ([4]; RT-112, absence of ligands): specifically inhibited MET phosphorylation

CS(=O)(=O)CCNCc1ccc(-c2ccc3ncnc(Nc4ccc(OCc5cccc(F)c5)c(Cl)c4)c3c2)o1 [lapatinib, reference compound]
activity on cell viability (reversal of rescue) [1]: not sufficient | reversal of ligand-mediated rescue of proliferation ([1]; MKN-45 in presence of MET inhibitor Cpd. A or Cpd. B, FIGS. 3, 4): reversed rescue by NRG1 | activity on cell viability (reversal of rescue) [2]: not sufficient | reversal of FGF7 rescue effect on FRS2 and ERK1/2 phosphorylation ([3]; MKN-45, MET inhibitor plus FGF7): not | sensitivity of NRG1-evoked phosphorylation re-activation to inhibitor ([3]; MKN-45, MET inhibitor plus NRG1): specifically sensitive | sensitivity of NRG1-caused restoration of ERK phosphorylation to inhibitor ([4]; RT-112): lapatinib-sensitive

HGF: Hepatocyte Growth Factor
rescue of cell proliferation by recombinant ligand ([2]; RT-112 in presence of FGFR inhibitor): reproduce the rescue effects | ERK phosphorylation after addition of ligand ([4]; RT-112, in the presence of BGJ398): restored ERK phosphorylation

B1: FGF7: Fibroblast Growth Factor 7 (activator of FGFR) (protein, UniProt P21781 32-194, looked up)
Fibroblast growth factor 7: CNDMTPEQMATNVNCSSPERHTRSYDYMEGGDIRVRRLFCRTQWYLRIDKRGKVKGTQEMKNNYNIMEIRTVAVGIVAIKGVESEFYLAMNKEGKLYAKKECNEDCNFKELILENHYNTYASAKWTHNGGEMFVALNQKGIPVRGKKTKKEQKTAHFLPMAIT
AKT phosphorylation after addition of ligand ([3]; MKN-45, MET inhibited): no or minimal effect on AKT phosphorylation | ERK1/2 phosphorylation after addition of ligand ([3]; MKN-45, MET inhibited): partially re-activated ERK1/2 phosphorylation | FRS2 phosphorylation after addition of ligand ([3]; MKN-45, MET inhibited): re-activated FRS2 phosphorylation
